Experimental data from PubChem BioAssay (NCI).
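Cultured in 96-well plates, cells were exposed to test compound for 48 hours across five concentrations. The concentration for 50% growth inhibition is given as GI50. TGI marks complete inhibition of growth.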

How the values were obtained:
Experiment in all cases: NCI tumour cell line growth inhibition, 48 h
MALME-3M melanoma = system: MALME-3M melanoma
SW-620 colon = system: SW-620 colon
HT29 colon = system: HT29 colon
HOP-62 NSCLC = system: HOP-62 NSCLC
HCT-116 colon = system: HCT-116 colon
EKVX NSCLC = system: EKVX NSCLC
M14 melanoma = system: M14 melanoma
OVCAR-3 ovarian = system: OVCAR-3 ovarian
NCI-H226 lung = system: NCI-H226 lung
SK-MEL-5 melanoma = system: SK-MEL-5 melanoma
MCF7 breast = system: MCF7 breast
UACC-62 melanoma = system: UACC-62 melanoma
SK-MEL-2 melanoma = system: SK-MEL-2 melanoma
T-47D breast = system: T-47D breast
SK-MEL-28 melanoma = system: SK-MEL-28 melanoma
RXF 393 renal = system: RXF 393 renal
SK-OV-3 ovarian = system: SK-OV-3 ovarian
UO-31 renal = system: UO-31 renal
SNB-75 CNS = system: SNB-75 CNS
786-0 renal = system: 786-0 renal
MDA-MB-231 breast = system: MDA-MB-231 breast
CAKI-1 renal = system: CAKI-1 renal
HCT-15 colon = system: HCT-15 colon
SF-539 CNS = system: SF-539 CNS
RPMI-8226 leukemia = system: RPMI-8226 leukemia
A549 NSCLC = system: A549 NSCLC
NCI-H460 lung = system: NCI-H460 lung
BT-549 breast = system: BT-549 breast
OVCAR-5 ovarian = system: OVCAR-5 ovarian
MOLT-4 leukemia = system: MOLT-4 leukemia
HS 578T breast = system: HS 578T breast
A498 renal = system: A498 renal
SN12C renal = system: SN12C renal
NCI-H23 lung = system: NCI-H23 lung
MDA-MB-468 breast = system: MDA-MB-468 breast
SNB-19 CNS = system: SNB-19 CNS
LOX IMVI melanoma = system: LOX IMVI melanoma
SR leukemia = system: SR leukemia
KM12 colon = system: KM12 colon
MDA-MB-435 = system: MDA-MB-435
ACHN renal = system: ACHN renal
SF-295 CNS = system: SF-295 CNS
COLO 205 colon = system: COLO 205 colon
DU-145 prostate = system: DU-145 prostate
PC-3 prostate = system: PC-3 prostate
HL-60(TB) leukemia = system: HL-60(TB) leukemia
OVCAR-4 ovarian = system: OVCAR-4 ovarian
IGROV1 ovarian = system: IGROV1 ovarian
K-562 leukemia = system: K-562 leukemia
TK-10 renal = system: TK-10 renal
HCC-2998 colon = system: HCC-2998 colon
SF-268 CNS = system: SF-268 CNS
UACC-257 melanoma = system: UACC-257 melanoma
HOP-92 NSCLC = system: HOP-92 NSCLC
OVCAR-8 ovarian = system: OVCAR-8 ovarian
NCI/ADR-RES ovarian = system: NCI/ADR-RES ovarian
CCRF-CEM leukemia = system: CCRF-CEM leukemia

COc1ccc(OC)c(/C=C/C(=O)c2nc3ccccc3n2Cc2ccc(F)cc2)c1
GI50 (MALME-3M melanoma): 3 µM
TGI (MALME-3M melanoma): 14.3 µM
GI50 (SW-620 colon): 2.03 µM
TGI (SW-620 colon): 4.63 µM
GI50 (HT29 colon): 2.34 µM
TGI (HT29 colon): 5.43 µM
GI50 (HOP-62 NSCLC): 3.08 µM
TGI (HOP-62 NSCLC): 11.2 µM
GI50 (HCT-116 colon): 1.61 µM
TGI (HCT-116 colon): 3.06 µM
GI50 (EKVX NSCLC): 2.77 µM
TGI (EKVX NSCLC): > 100 µM
GI50 (M14 melanoma): 2.67 µM
TGI (M14 melanoma): 9.56 µM
GI50 (OVCAR-3 ovarian): 2.17 µM
TGI (OVCAR-3 ovarian): 5.6 µM
GI50 (NCI-H226 lung): 4.03 µM
TGI (NCI-H226 lung): 25.5 µM
GI50 (SK-MEL-5 melanoma): 2.73 µM
TGI (SK-MEL-5 melanoma): 10.1 µM
GI50 (MCF7 breast): 2.15 µM
TGI (MCF7 breast): > 100 µM
GI50 (UACC-62 melanoma): 1.93 µM
TGI (UACC-62 melanoma): 5.06 µM
GI50 (SK-MEL-2 melanoma): 1.94 µM
TGI (SK-MEL-2 melanoma): 4.19 µM
GI50 (T-47D breast): 2.95 µM
TGI (T-47D breast): > 100 µM
GI50 (SK-MEL-28 melanoma): 2.18 µM
TGI (SK-MEL-28 melanoma): 4.68 µM
GI50 (RXF 393 renal): 1.92 µM
TGI (RXF 393 renal): 4.41 µM
GI50 (SK-OV-3 ovarian): 11.4 µM
TGI (SK-OV-3 ovarian): > 100 µM
GI50 (UO-31 renal): 2.37 µM
TGI (UO-31 renal): 8.61 µM
GI50 (SNB-75 CNS): 1.54 µM
TGI (SNB-75 CNS): 6.66 µM
GI50 (786-0 renal): 2.93 µM
TGI (786-0 renal): 9.51 µM
GI50 (MDA-MB-231 breast): 2 µM
TGI (MDA-MB-231 breast): 4.43 µM
GI50 (CAKI-1 renal): 3.08 µM
TGI (CAKI-1 renal): > 100 µM
GI50 (HCT-15 colon): 1.62 µM
TGI (HCT-15 colon): 3.69 µM
GI50 (SF-539 CNS): 2.14 µM
TGI (SF-539 CNS): 4.67 µM
GI50 (RPMI-8226 leukemia): 2.05 µM
TGI (RPMI-8226 leukemia): 5.89 µM
GI50 (A549 NSCLC): 3.27 µM
TGI (A549 NSCLC): > 100 µM
GI50 (NCI-H460 lung): 1.67 µM
TGI (NCI-H460 lung): 4 µM
GI50 (BT-549 breast): 2.61 µM
TGI (BT-549 breast): 7.6 µM
GI50 (OVCAR-5 ovarian): 2.45 µM
TGI (OVCAR-5 ovarian): 5.56 µM
GI50 (MOLT-4 leukemia): 2.15 µM
TGI (MOLT-4 leukemia): 7.98 µM
GI50 (HS 578T breast): 3.12 µM
TGI (HS 578T breast): > 100 µM
GI50 (A498 renal): 34.8 µM
TGI (A498 renal): > 100 µM
GI50 (SN12C renal): 3.47 µM
TGI (SN12C renal): > 100 µM
GI50 (NCI-H23 lung): 2.24 µM
TGI (NCI-H23 lung): 6.62 µM
GI50 (MDA-MB-468 breast): 2.11 µM
TGI (MDA-MB-468 breast): 5.8 µM
GI50 (SNB-19 CNS): 2.31 µM
TGI (SNB-19 CNS): 6.08 µM
GI50 (LOX IMVI melanoma): 1.56 µM
TGI (LOX IMVI melanoma): 3.06 µM
GI50 (SR leukemia): 2.2 µM
TGI (SR leukemia): 7.4 µM
GI50 (KM12 colon): 2.52 µM
TGI (KM12 colon): 7.14 µM
GI50 (MDA-MB-435): 2.02 µM
TGI (MDA-MB-435): 4.94 µM
GI50 (ACHN renal): 2.94 µM
TGI (ACHN renal): 9.13 µM
GI50 (SF-295 CNS): 3.05 µM
TGI (SF-295 CNS): 13.2 µM
GI50 (COLO 205 colon): 2.61 µM
TGI (COLO 205 colon): 8.08 µM
GI50 (DU-145 prostate): 3.53 µM
TGI (DU-145 prostate): > 100 µM
GI50 (PC-3 prostate): 3.82 µM
TGI (PC-3 prostate): > 100 µM
GI50 (HL-60(TB) leukemia): 1.57 µM
TGI (HL-60(TB) leukemia): 5.93 µM
GI50 (OVCAR-4 ovarian): 5.02 µM
TGI (OVCAR-4 ovarian): > 100 µM
GI50 (IGROV1 ovarian): 3.01 µM
TGI (IGROV1 ovarian): 11.1 µM
GI50 (K-562 leukemia): 2.52 µM
TGI (K-562 leukemia): > 100 µM
GI50 (TK-10 renal): 3.26 µM
TGI (TK-10 renal): 17 µM
GI50 (HCC-2998 colon): 1.95 µM
TGI (HCC-2998 colon): 3.93 µM
GI50 (SF-268 CNS): 3.5 µM
TGI (SF-268 CNS): > 100 µM
GI50 (UACC-257 melanoma): 4.03 µM
TGI (UACC-257 melanoma): 27.3 µM
GI50 (HOP-92 NSCLC): 2.88 µM
TGI (HOP-92 NSCLC): 43.8 µM

Cn1cc(-c2cc3nc(-c4c[nH]c5ccccc45)cc(N)n3n2)c2ccccc21
GI50 (MALME-3M melanoma): 1.87 µM
TGI (MALME-3M melanoma): 3.37 µM
GI50 (HCT-116 colon): 1.8 µM
TGI (HCT-116 colon): 3.3 µM
GI50 (EKVX NSCLC): 1.65 µM
TGI (EKVX NSCLC): 3.16 µM
GI50 (M14 melanoma): 1.75 µM
TGI (M14 melanoma): 3.34 µM
GI50 (OVCAR-3 ovarian): 1.74 µM
TGI (OVCAR-3 ovarian): 3.4 µM
GI50 (NCI-H226 lung): 2.2 µM
TGI (NCI-H226 lung): 4.98 µM
GI50 (SK-MEL-5 melanoma): 1.95 µM
TGI (SK-MEL-5 melanoma): 4.1 µM
GI50 (MCF7 breast): 1.68 µM
TGI (MCF7 breast): 3.39 µM
GI50 (UACC-62 melanoma): 1.64 µM
TGI (UACC-62 melanoma): 3.06 µM
GI50 (SK-MEL-2 melanoma): 1.87 µM
TGI (SK-MEL-2 melanoma): 3.73 µM
GI50 (SK-MEL-28 melanoma): 1.74 µM
TGI (SK-MEL-28 melanoma): 3.18 µM
GI50 (SK-OV-3 ovarian): 10.5 µM
TGI (SK-OV-3 ovarian): 46.8 µM
GI50 (UO-31 renal): 1.54 µM
TGI (UO-31 renal): 2.93 µM
GI50 (SNB-75 CNS): 1.74 µM
TGI (SNB-75 CNS): 3.93 µM
GI50 (786-0 renal): 1.51 µM
TGI (786-0 renal): 2.94 µM
GI50 (MDA-MB-231 breast): 1.94 µM
TGI (MDA-MB-231 breast): 3.35 µM
GI50 (CAKI-1 renal): 1.68 µM
TGI (CAKI-1 renal): 3.31 µM
GI50 (HCT-15 colon): 1.6 µM
TGI (HCT-15 colon): 3.01 µM
GI50 (SF-539 CNS): 1.75 µM
TGI (SF-539 CNS): 3.13 µM
GI50 (RPMI-8226 leukemia): 2.11 µM
TGI (RPMI-8226 leukemia): 5.07 µM
GI50 (BT-549 breast): 12.4 µM
TGI (BT-549 breast): 54.4 µM
GI50 (OVCAR-5 ovarian): 1.82 µM
TGI (OVCAR-5 ovarian): 3.3 µM
GI50 (MOLT-4 leukemia): 1.77 µM
TGI (MOLT-4 leukemia): 3.92 µM
GI50 (HS 578T breast): 2.55 µM
TGI (HS 578T breast): 6.28 µM
GI50 (A498 renal): 19.7 µM
TGI (A498 renal): 44.6 µM
GI50 (SN12C renal): 1.87 µM
TGI (SN12C renal): 3.49 µM
GI50 (NCI-H23 lung): 1.75 µM
TGI (NCI-H23 lung): 3.32 µM
GI50 (MDA-MB-468 breast): 1.55 µM
TGI (MDA-MB-468 breast): 2.93 µM
GI50 (SNB-19 CNS): 3.43 µM
TGI (SNB-19 CNS): 17.3 µM
GI50 (LOX IMVI melanoma): 1.86 µM
TGI (LOX IMVI melanoma): 3.35 µM
GI50 (SR leukemia): 1.95 µM
TGI (SR leukemia): 5.9 µM
GI50 (OVCAR-8 ovarian): 1.9 µM
TGI (OVCAR-8 ovarian): 3.97 µM
GI50 (MDA-MB-435): 1.78 µM
TGI (MDA-MB-435): 3.46 µM
GI50 (NCI/ADR-RES ovarian): 1.78 µM
TGI (NCI/ADR-RES ovarian): 3.41 µM
GI50 (ACHN renal): 1.76 µM
TGI (ACHN renal): 3.22 µM
GI50 (SF-295 CNS): 1.64 µM
TGI (SF-295 CNS): 3.19 µM
GI50 (COLO 205 colon): 1.75 µM
TGI (COLO 205 colon): 3.29 µM
GI50 (DU-145 prostate): 2.04 µM
TGI (DU-145 prostate): 4.73 µM
GI50 (HL-60(TB) leukemia): 1.5 µM
TGI (HL-60(TB) leukemia): 3.22 µM
GI50 (IGROV1 ovarian): 1.77 µM
TGI (IGROV1 ovarian): 3.26 µM
GI50 (K-562 leukemia): 1.74 µM
TGI (K-562 leukemia): 3.54 µM
GI50 (TK-10 renal): 1.77 µM
TGI (TK-10 renal): 4.65 µM
GI50 (HCC-2998 colon): 1.65 µM
TGI (HCC-2998 colon): 3.06 µM
GI50 (SF-268 CNS): 2.4 µM
TGI (SF-268 CNS): 7.17 µM
GI50 (HOP-92 NSCLC): 1.94 µM
TGI (HOP-92 NSCLC): 3.75 µM
GI50 (CCRF-CEM leukemia): 1.95 µM
TGI (CCRF-CEM leukemia): 4.2 µM
